In the CheMixHub viscosity set:

Test: xn = mol fraction of the nth substance listed

CCCCCCCCCCN + C1CCCCC1
303.15 K, 101 kPa
Details	viscosity [mPa·s]
x2 = 0.2056	1.562
x2 = 0.3987	1.361
x2 = 0.5065	1.239
x2 = 0.5875	1.159
x2 = 0.7947	0.9708

CCCN(CCC)CCC + C1CCCCC1
viscosity [mPa·s], 101 kPa
Details	x1 = 0.01088	x1 = 0.02001	x1 = 0.0305	x1 = 0.04057	x1 = 0.05108	x1 = 0.05957	x1 = 0.06928	x1 = 0.07872	x1 = 0.08785
303.15 K	0.8118	0.8071	0.8005	0.7936	0.7874	0.7784	0.7721	0.766	0.7599
313.15 K	0.7082	0.6992	0.6899	0.6808	0.673	0.6664	0.6605	0.6541	0.6465

CCCN(CCC)CCC + C1COCCO1
Details	viscosity [mPa·s]
303.15 K, 101 kPa, x1 = 0.0198	1.045

Cc1ccc(C(C)C)c(O)c1 + CC12CCC(CC1)C(C)(C)O2
viscosity [mPa·s], 101.33 kPa
Details	x1 = 0.5865	x1 = 0.6068	x1 = 0.6272	x1 = 0.6462	x1 = 0.6661	x1 = 0.6858	x1 = 0.7057
293.15 K	43.71	45.56	46.15	46.86	46.28	45.95	44.22
298.15 K	29.92	30.8	31.35	31.41	31.27	30.92	29.82

CCN(CC)c1ccccc1 + CC(=O)O
viscosity [mPa·s], 101 kPa
Details	298.15 K	318.15 K
x2 = 0.0992	2.081	1.363
x2 = 0.1985	2.343	1.489
x2 = 0.2959	2.722	1.597
x2 = 0.3986	3.462	1.91
x2 = 0.5022	4.639	2.408
x2 = 0.598	6.4	3.1
x2 = 0.7002	9.548	4.198
x2 = 0.7469	10.94	4.721
x2 = 0.7982	12	5.159
x2 = 0.8467	10.95	4.965
x2 = 0.9027	6.538	3.527

CCOC(=O)CC(=O)OCC + CC(=O)c1ccccc1
viscosity [mPa·s], 101 kPa
Details	x1 = 0.0812	x1 = 0.1401	x1 = 0.2516	x1 = 0.3486	x1 = 0.4322	x1 = 0.5248	x1 = 0.6335	x1 = 0.7384	x1 = 0.8256	x1 = 0.9278
303.15 K	1.564	1.587	1.626	1.655	1.677	1.697	1.714	1.727	1.732	1.738
308.15 K	1.412	1.43	1.461	1.487	1.506	1.524	1.54	1.55	1.559	1.567
313.15 K	1.315	1.334	1.363	1.384	1.4	1.416	1.43	1.44	1.446	1.454

ClCCCCl + CC(C)CO
viscosity [mPa·s], 101 kPa
Details	x1 = 0.0989	x1 = 0.2041	x1 = 0.3021	x1 = 0.3988	x1 = 0.5019	x1 = 0.602	x1 = 0.704	x1 = 0.8027	x1 = 0.8982
298.15 K	2.523	1.948	1.604	1.373	1.194	1.078	1.001	0.9476	0.9412
313.15 K	1.637	1.327	1.127	1.001	0.8964	0.8306	0.789	0.7599	0.7565

Cc1ccc(C(C)C)c(O)c1 + CC(C)[C@@H]1CC[C@@H](C)C[C@H]1O
Details	viscosity [mPa·s]
293.15 K, 100 kPa, x1 = 0.333	68.78
293.15 K, 100 kPa, x1 = 0.5	54.01
298 K, 101 kPa, x2 = 0.2	25.3
298 K, 101 kPa, x2 = 0.25	26.8
298 K, 101 kPa, x2 = 0.333	32
298.15 K, 100 kPa, x1 = 0.333	43.86
298.15 K, 100 kPa, x1 = 0.5	35.41
303.15 K, 100 kPa, x1 = 0.333	29.46
303.15 K, 100 kPa, x1 = 0.5	24.33
308.15 K, 100 kPa, x1 = 0.333	20.66
308.15 K, 100 kPa, x1 = 0.5	17.41
313.15 K, 100 kPa, x1 = 0.333	15.01
313.15 K, 100 kPa, x1 = 0.5	12.89
318.15 K, 100 kPa, x1 = 0.333	11.25
318.15 K, 100 kPa, x1 = 0.5	9.84
323.15 K, 100 kPa, x1 = 0.333	8.69
323.15 K, 100 kPa, x1 = 0.5	7.72

CCCCCCCCCCCC(=O)OCC + CCC1CCCCC1
viscosity [mPa·s], 100 kPa
Details	x2 = 0.1001	x2 = 0.1999	x2 = 0.3	x2 = 0.3999	x2 = 0.5001	x2 = 0.5999	x2 = 0.7	x2 = 0.7999	x2 = 0.9
293.15 K	3.07	2.768	2.476	2.193	1.919	1.663	1.429	1.219	1.023
298.15 K	2.752	2.485	2.228	1.977	1.742	1.519	1.318	1.134	0.963
303.15 K	2.479	2.251	2.027	1.808	1.597	1.402	1.222	1.057	0.901
308.15 K	2.232	2.036	1.841	1.651	1.468	1.296	1.131	0.981	0.837
313.15 K	2.033	1.86	1.686	1.516	1.352	1.197	1.05	0.913	0.786
318.15 K	1.87	1.716	1.561	1.406	1.258	1.119	0.987	0.864	0.745
323.15 K	1.697	1.562	1.423	1.289	1.159	1.036	0.92	0.81	0.7

CCOC(=O)CC(=O)OCC + CCC(=O)CC
viscosity [mPa·s], 101 kPa
Details	x1 = 0.0736	x1 = 0.1356	x1 = 0.2458	x1 = 0.3326	x1 = 0.4124	x1 = 0.5158	x1 = 0.6256	x1 = 0.7456	x1 = 0.8626	x1 = 0.9415
303.15 K	0.488	0.535	0.633	0.725	0.814	0.94	1.094	1.273	1.475	1.627
308.15 K	0.45	0.493	0.58	0.658	0.742	0.859	0.999	1.162	1.341	1.478
313.15 K	0.437	0.477	0.56	0.633	0.708	0.812	0.938	1.089	1.25	1.375

CCCN(CCC)CCC + CCC(=O)O
viscosity [mPa·s], 101 kPa
Details	x2 = 0.1	x2 = 0.4	x2 = 0.5	x2 = 0.6	x2 = 0.7	x2 = 0.75	x2 = 0.775	x2 = 0.8	x2 = 0.9
293.15 K	0.734	4.43	5.62	5.97	13.95	20.55	23.47	23.75	8.57
298.15 K	0.664	3.85	5.12	5.22	11.2	16.25	18.67	18.96	7.5
303.15 K	0.589	3.5	4.35	4.5	9.2	13.02	15	15.59	6.47
308.15 K	0.54	3.1	3.75	3.8	7.7	10.85	12.22	12.77	5.81
313.15 K	0.51	2.8	3.62	3.35	6.52	9	10.32	10.76	5.04
318.15 K	0.499	2.45	3.03	3	5.57	7.62	8.68	8.96	4.4
323.15 K	0.464	2.22	2.75	2.67	4.82	6.46	7.44	7.72	4.05

CCN(CC)c1ccccc1 + CCC(=O)O
Details	viscosity [mPa·s]
323.15 K, 101 kPa, x2 = 0.5177	1.865

ClCCCCl + CCC(C)(C)O
viscosity [mPa·s], 101 kPa
Details	x1 = 0.101	x1 = 0.2021	x1 = 0.3082	x1 = 0.4082	x1 = 0.5066	x1 = 0.608	x1 = 0.7071	x1 = 0.808	x1 = 0.9003
298.15 K	2.779	1.877	1.393	1.18	1.061	0.9826	0.9381	0.9128	0.9114
313.15 K	1.508	1.164	0.9559	0.8566	0.7978	0.7579	0.7469	0.7328	0.7431

CCCN(CCC)CCC + CCC(C)O
303.15 K, 101 kPa
Details	viscosity [mPa·s]
x1 = 0.009049	2.448
x1 = 0.02003	2.423
x1 = 0.02982	2.4
x1 = 0.04	2.379
x1 = 0.05207	2.352
x1 = 0.06138	2.332
x1 = 0.06704	2.317
x1 = 0.07865	2.291
x1 = 0.09178	2.264

ClCCCCl + CCC(C)O
viscosity [mPa·s], 101 kPa
Details	x1 = 0.1002	x1 = 0.2005	x1 = 0.3002	x1 = 0.4005	x1 = 0.4986	x1 = 0.6027	x1 = 0.6951	x1 = 0.8051	x1 = 0.9113
298.15 K	2.23	1.683	1.346	1.134	1.031	0.9587	0.9141	0.894	0.8997
313.15 K	1.369	1.103	0.9402	0.8403	0.7841	0.7468	0.7254	0.7214	0.7371

Cc1ccc(C(C)C)c(O)c1 + CCCCCCCC(=O)O
100 kPa, x2 = 0.579
Details	viscosity [mPa·s]
293.15 K	9.71
298.15 K	8
303.15 K	6.68
308.15 K	5.65
313.15 K	4.83
318.15 K	4.17
323.15 K	3.64

Cc1ccc(C(C)C)c(O)c1 + CCCCCCCCCC(=O)O
100 kPa, x2 = 0.5
Details	viscosity [mPa·s]
293.15 K	15.28
298.15 K	12.16
303.15 K	9.86
308.15 K	8.12
313.15 K	6.78
318.15 K	5.74
323.15 K	4.91

Cc1ccc(C(C)C)c(O)c1 + CCCCCCCCCCCC(=O)O
100 kPa, x2 = 0.45
Details	viscosity [mPa·s]
303.15 K	12.43
308.15 K	10.12
313.15 K	8.37
318.15 K	7.01
323.15 K	5.95
